Measurements published in US11571480B2, “Multi-ligand drug conjugates and uses thereof” (priority 2015, dated 2023).

Key:
[1] = system: Transplanted H460 tumor; assay: Inhibitory assay of conjugates LDC11A, LDC11B against xenograf tumors; format: in vivo, nude mice
Description: (§1) Animal: nude mice, aged 6-8 weeks, female
(§2) 1) human large cell lung cancer cell H460, ovarian cancer cell SKOV3, breast cancer cell line HCC1954, and human breast cancer cell SK-BR-3 were incubated at 37° C., 5% CO2 in IMDM medium containing 10% fetal bovine serum, the cells were passaged every 2-3 days.
(§3) 2) generation of tumors: 7×10^6 tumor cells were subcutaneously injected into the back of nude mice, and the mice were grouped for treatment after the tumor sizes were as large as about 100˜200 mm^3.
(§4) 3) treatment: 3 mice/group, treated with LDC11A, LDC11B, as well as controls MMAE and PBS with doses of 5 and 10 mg/kg every 5 days, three injections.
(§5) 4) the physical performance, body weights and tumor sizes of the animals were monitored. The number of animal death was recorded during the experiment.

[2] = system: human lung cancer cell H460; assay: Cytotoxicity test of conjugate LDC11B; format: cell-based; conditions: H460, incubated 15-30 min, then 2-3 days
Description: (§6) Culture medium: RPMI 1640 Medium, no folic acid
(§7) 1) human lung cancer cell H460, ovarian cancer cell SKOV3, human embryonic kidney cell 293A were incubated at 37° C., 5% CO2 in RPMI 1640 medium containing 10% fetal bovine serum, the cells were passaged every 2-3 days.
(§8) 2) human lung cancer cell H460, ovarian cancer cell SKOV3, human embryonic kidney cell 293A were plated at 1×10^3 cells per well (96-well plate) and incubated for 8-12 h at 37° C., 5% CO2.
(§9) 3) Stock solutions of LDC conjugates or control were prepared in PBS solution. 100 μL/well of serially diluted LDC conjugates or control was added to the cells in the plate and incubated for 15-30 min at 37° C., 5% CO2. The culture medium in the wells was then removed by aspiration and the cells were incubated in fresh culture medium without conjugates (150 μL/well) for 2-3 days at 37° C., 5% CO2.
(§10) 4) CellTiter 96® Aqueous One Solution Cell Proliferation Assay (Promega) was added to each well to measure the amount of […] cells, and the plate was incubated in an incubator for 1 h at 37° C., 5% CO2.
(§11) 5) The plate was read at 490 nm on a microplate reader, and the cell survivals were compared for cells with or without the treatment of LDC conjugates. The LDC drug concentrations that are required for 50% cell death (IC50 values) were determined.

[3] = Cytotoxicity test of conjugate LDC11B; format: cell-based, human; conditions: human, 293A embryonic kidney cells, incubated 15-30 min, then 2-3 days
Description: as §6, §7, §8, §9, §10, §11

[4] = system: ovarian cancer cell SKOV3; assay: Cytotoxicity test of conjugate LDC11B; format: cell-based, human; conditions: SKOV3, incubated 15-30 min, then 2-3 days
Description: as §6, §7, §8, §9, §10, §11

[5] = system: Transplanted HCC1954 tumor; assay: Inhibitory assay of conjugates LDC11A, LDC11B against xenograf tumors; format: in vivo, nude mice; conditions: for Body weight of mice / Tumor size: HCC1954 tumor, 10 mg/kg
Description: as §1, §2, §3, §4, §5

[6] = system: Transplanted SKOV3 tumor; assay: as above; format: in vivo, nude mice; conditions: for Body weight of mice / Tumor size: SKOV3 tumor, 10 mg/kg
Description: as §1, §2, §3, §4, §5

[7] = H460 tumor, 10 mg/kg, Before Injection
[8] = H460 tumor, 10 mg/kg, Five days after Injection 1
[9] = H460 tumor, 10 mg/kg, Five days after Injection 2
[10] = H460 tumor, 10 mg/kg, Five days after Injection 3

CC[C@H](C)[C@@H]([C@@H](CC(=O)N1CCC[C@H]1[C@H](OC)[C@@H](C)C(=O)N[C@H](C)[C@@H](O)c1ccccc1)OC)N(C)C(=O)[C@@H](NC(=O)[C@H](C(C)C)N(C)C(=O)OCc1ccc(NC(=O)[C@H](CCCNC(N)=O)NC(=O)[C@@H](NC(=O)CCCCCN2C(=O)CC(SC[C@H](NC(=O)CNC(=O)[C@@H]3CCCN3C(=O)[C@H](CCCNC(=N)N)NC(=O)[C@H](CC(C)C)NC(=O)CNC(=O)[C@H](Cc3ccc(O)cc3)NC(=O)[C@H](CO)NC(=O)[C@H](Cc3c[nH]c4ccccc34)NC(=O)[C@H](Cc3c[nH]cn3)NC(=O)[C@@H](N)CCC(=O)O)C(=O)O)C2=O)C(C)C)cc1)C(C)C (stereo partly drawn) [LDC11A, P11-MC-Val-Cit-PAB-MMAE, reference compound]
animal death / toxicity (in words) ([1]; H460 tumor, 10 mg/kg): dead after the first injection | Body weight of mice [1, 7]: 24.46 g | Body weight of mice [1, 8]: Death | Body weight of mice ([1]; H460 tumor, 10 mg/kg, Three days after Injection 1): 18.25 g | IC50 [2]: 667 nM | IC50 [3]: 1310 nM | IC50 [4]: 341 nM

CC[C@H](C)[C@@H]([C@@H](CC(=O)N1CCC[C@H]1[C@H](OC)[C@@H](C)C(=O)N[C@H](C)[C@@H](O)c1ccccc1)OC)N(C)C(=O)[C@@H](NC(=O)[C@H](C(C)C)N(C)C(=O)OCc1ccc(NC(=O)[C@H](CCCNC(N)=O)NC(=O)[C@@H](NC(=O)CCCCCN2C(=O)CC(SC[C@H](NC(=O)CNC(=O)[C@@H]3CCCN3C(=O)[C@H](CCCNC(=N)N)NC(=O)[C@H](CC(C)C)NC(=O)CNC(=O)[C@H](Cc3ccc(O)cc3)NC(=O)[C@H](CO)NC(=O)[C@H](Cc3c[nH]c4ccccc34)NC(=O)[C@H](Cc3c[nH]cn3)NC(=O)[C@H](CCC(=O)O)NC(=O)CC[C@H](NC(=O)c3ccc(NCC4=Nc5c([nH]c(N)nc5=O)NC4)cc3)C(=O)O)C(=O)O)C2=O)C(C)C)cc1)C(C)C (some centres unmarked) [LDC11B]
tumor growth (in words) ([1]; H460, three injections at 10 mg/kg): can inhibit the tumor growth | Body weight of mice [1, 7]: 21.85 g | Tumor size [1, 7]: 225.32 mm^3 | Body weight of mice [1, 8]: 22.2 g | Tumor size [1, 8]: 108.73 mm^3 | Body weight of mice [1, 9]: 22.55 g | Tumor size [1, 9]: 0 mm^3 | Body weight of mice [1, 10]: 22.38 g | Tumor size [1, 10]: 0 mm^3 | tumor growth (in words) ([5]; HCC1954, three injections at 10 mg/kg): can inhibit the tumor growth | Body weight of mice ([5]; Before Injection): 22.76 g | Tumor size ([5]; Before Injection): 218.76 mm^3 | Body weight of mice ([5]; Five days after Injection 1): 22.56 g | Tumor size ([5]; Five days after Injection 1): 87.51 mm^3 | Body weight of mice ([5]; Five days after Injection 2): 23.15 g | Tumor size ([5]; Five days after Injection 2): 0 mm^3 | Body weight of mice ([5]; Five days after Injection 3): 23.48 g | Tumor size ([5]; Five days after Injection 3): 0 mm^3 | tumor growth (in words) ([6]; SKOV3, three injections at 10 mg/kg): can inhibit the tumor growth | Body weight of mice ([6]; Before Injection): 22.11 g | Tumor size ([6]; Before Injection): 169.22 mm^3 | Body weight of mice ([6]; Five days after Injection 1): 24.28 g | Tumor size ([6]; Five days after Injection 1): 137.66 mm^3 | Body weight of mice ([6]; Five days after Injection 2): 23.6 g | Tumor size ([6]; Five days after Injection 2): 76.13 mm^3 | Body weight of mice ([6]; Five days after Injection 3): 24.92 g | Tumor size ([6]; Five days after Injection 3): 27.84 mm^3 | IC50 [3]: 524 nM
